B1: Clostridium stercorarium DNA polymerase, N-terminal His6 tag (Cst-His), SEQ ID NO:14 (Thermoclostridium stercorarium subsp. stercorarium DSM 8532) (protein)
chain: MKYLLPTAAAGLLLLAAQPAMAMDPKIILIDGNSILNRGFYALSGRSMLTTSTGLYTNAVFAFVNILNKYIEEENPDYIAVAFDLRAKTFRHGLYEGYKAQRKGMPDELAMQIPLAKEVLRAMNIAIIEHEGYEADDIIGSLSLKAEKENFDVIILTGDRDSFQLISDRVKVILPSTKAGKTETNVYDKQAIIDKYGVLPHQLIDVKGLMGDSSDNIPGVPGVGEKTALSLISAYGTLEGVYEHIDEIKQPKLKASLIEYKDQAFLSRKLGTIVRNLELCASLEDLKRKEINRKELLNVFRKLEFESIISKMNLASAEVTELPPAPEELKITHISAAEDLKKWIAYLLNQKNISVLQLIDREDSYSSRLSGLALCTGDEVFYIETGTALPENLIATELKELWQNENIHKIGHNIKEFITWLLKHDVELNGLYFDTMIAEYLIDSIRNGYPIASLSHKYLNRSVPSLDELLGKGKGAKKYSEIPPERLKDYSAYNVKAIFDIWPMQKKVLQENRQEELFNDIELPLITVLASMEYHGFKVDAAKLHEYGEVLLSRIKDLEKVIYMLAGEEFNINSTKQLGTILFEKLKLPVVKSTKTGYSTDVEVLEELYYKHDIIPCIIEYRQLTKLYTTYAEGLEKVINPVTGKIHSSFNQTVTATGRISSTEPNLQNIPVRHEMGREIRKAFIPSSENAVFVDADYSQIELRVLAHITGDEALINAFVKGEDIHTATASLVFDVAPEDVTPELRRKAKAVNFGIVYGISDYGLARDLGITRKEAKRYIDDYFAKYPKVKTYVDEIVRVGQEQGYVETLFHRRRYLPELASKNFHQRSFGKRVAMNTPIQGTAADIIKIAMVKVYKALKESGLKSRLILQVHDELVIETFEDELETVKELVKKCMEEAVELSVPLVVDVSIGKNWYEAS
B2: Clostridium thermosulfurogenes DNA polymerase, N-terminal His6 tag (Cth-His), SEQ ID NO:15 (Thermoanaerobacterium thermosulfurigenes) (protein)
chain: MKYLLPTAAAGLLLLAAQPAMAMAKFLIIDGNSLMYRAYFALPDLMNSEGMHTNAIYGFSMMLLKLLEEEKPDYIAIAFDKKASTFRHKEYSAYKGTRQSMPEELIEQVDILKDVINAFNIKTIEIEGFEADDIIGTVSKIASESGMDVLIVTGDRDALQLVSANVKVKICKKGITQMDEYDEKAVFEKYEVTPLQFIDLKGLMGDKSDNIPGVPNIGEKTAIKLVKEFGSIENLLMNTDKLKGKIKENVENNAELAVLSKRLATIERNVPIDIDLNEYAVKNYDVNKLTELFEKLEFSSLISDLKDDSRDTKDIKEWPVRDFTYVKNVLGKFDVLSLYPFIYDGKIKAVSFACGDGSFFVEIDDYDNFKLLNNDKLTLIGHDLKDFLVNISYCGIELNCKILDTAIMTYLLNPSESNYDISRVLKKYLKEDLQNIDDIVGKGRNKKSYDDIDKKLLVDYMCSAASNLSKLKDKLMSFIKEMEMEDLLKNVEIPLIEVLKSMEVYGFTLDKDVLRSISKEIDEKTDKIVKDIYDAAGYEFNINSTKQLSEFLFDKLNLPAIKKTKTGYSTDMEVLAELIPYNDIVGEIIEYRQLMKLKSTYIDGFIPIMDENNRVHSTFKQTVAATGRISSTEPNLQNIPVREEFGRRIRKAFVSSYEDGLIISADYSQIELRVLAHLSEDEKLIESFLNNEDIHLRTASEVFKVSKEEVTSEMRRRAKAVNFGIVYGISDYGLSKDLKISRKEAKEYIDNYFDRYKGVKNYIDSIVKFAKENGYVTTILNRRRYIPEINSKNFNQRSFGERMAMNTPIQGSAADIIKMSMVKVYNELKERGLKSRLILQVHDELIIDTHPDEVEIVKELLKSIMENIIKLKVPLVVDIGQGKNWYDAK

Legend:
[1] = biological target: T1, Clostridium stercorarium DNA polymerase, N-terminal His6 tag (Cst-His), SEQ ID NO:14 (Thermoclostridium stercorarium, UniProt L7VMI6); assay: Steady-state kinetics, DNA- and RNA-dependent polymerase activity; settings: Table 34, DNA template, 2 mM MgCl2, 45 °C per footnote
T1 sequence (L7VMI6 with tags, fused parts or gaps): B1 chain
From the text: (§1) Subcloning of genes for Cst and Cth DNA polymerases. In order to improve expression and simplify purification of Cst and Cth DNA polymerase, the genes were subcloned downstream of a T7 promoter and an amino-terminal His6 tag sequence was introduced using Gateway cloning technology (Invitrogen Corporation, Carlsbad, Calif.). The sequence of the DNA oligonucleotide used at the 5′ end of the Cst gene was: 5′-[…] ATAGAC 3′ (SEQ ID NO:37). The sequence of the DNA oligonucleotide used at the 5′ end of the Cth gene was: 5′-[…] […]-3′ (SEQ ID NO:38). The sequence of the DNA oligonucleotide used at the 3′ end of each gene was the same: 5′-[…] […] 3′ (SEQ ID NO:39). Purified pET26B plasmid DNA (Novagen Inc., Madison, Wis.) bearing the gene for Cst or Cth DNA polymerase was amplified by PCR utilizing the primers listed above and Platinum Taq HiFi DNA polymerase (Invitrogen Corporation, Carlsbad, Calif.). PCR products purified by agarose gel electrophoresis were cloned into Gateway vector pDON21 and transferred by recombination into vector pDEST17. […] Each final recombinant plasmid was transformed into the E. coli expression host BL21-AI (Invitrogen Corporation, Carlsbad, Calif.).
(§2) Purification of Cst-His and Cth-His DNA polymerases. E. coli cells (BL21AI) bearing the plasmid pDEST17 with the gene for Cst-His or Cth-His DNA polymerase were grown in 2.8-1 Fembach flasks in LB broth containing 50 μg/ml ampicillin at 37° C. After the culture reached an A590 of 1.0, expression of DNA polymerase was induced by the addition of 0.2% arabinose for 3 hr. Cells were harvested by centrifugation and stored at −70° C.
(§3) Steady-state kinetic measurements.
(§4) The assays were conducted in the presence of 1.5 mM MgCl2 at 55° C. for all enzymes except the Caldibacillus cellulovorans CompA.2 enzyme where 2 mM MgCl2 and 45° C. were used.

[2] = biological target: T2, Clostridium thermosulfurogenes DNA polymerase, N-terminal His6 tag (Cth-His), SEQ ID NO:15 (Thermoanaerobacterium thermosulfurigenes, UniProt Q6X9R5); assay: as above; settings: Table 34, DNA template, 2 mM MgCl2, 45 °C per footnote
T2 sequence (Q6X9R5 with tags, fused parts or gaps): B2 chain
From the text: as §1, §2, §3, §4

[3] = biological target: SuperScript II reverse transcriptase (SSII, SS II RT), a modified M-MLV reverse transcriptase (Moloney murine leukemia virus isolate Shinnick, UniProt P03355); assay: as above; type: biochemical
Procedure: (§5) Thermotoga neapolitana (Tne) DNA polymerase mutated to eliminate 3′ to 5′ and 5′ to 3′ exonuclease activity was cloned, engineered and purified as described in U.S. Pat. No. 6,306,588. SuperScript II reverse transcriptase (SS II RT) was from Invitrogen Corporation, Carlsbad, Calif.
as §3
(§6) The catalytic rate constant kcat and the Michaelis constant KM were determined for both the DNA-dependent and RNA-dependent polymerase activities for the polypeptides of the invention and these parameters were compared to those of Tne DNA polymerase enzyme and […]™ II reverse transcriptase. […]

[4] = biological target: T3, Thermotoga neapolitana (Tne) DNA polymerase, mutated to eliminate 3′ to 5′ and 5′ to 3′ exonuclease activity (Thermotoga neapolitana, UniProt B9K7T2); assay: as above; type: biochemical
T3 construct: mutated to eliminate 3'-5' and 5'-3' exonuclease activity as in US 6,306,588 (recalled, unsure: D137A and D323A)
T3 sequence (B9K7T2 entry or part of it, stated change not applied): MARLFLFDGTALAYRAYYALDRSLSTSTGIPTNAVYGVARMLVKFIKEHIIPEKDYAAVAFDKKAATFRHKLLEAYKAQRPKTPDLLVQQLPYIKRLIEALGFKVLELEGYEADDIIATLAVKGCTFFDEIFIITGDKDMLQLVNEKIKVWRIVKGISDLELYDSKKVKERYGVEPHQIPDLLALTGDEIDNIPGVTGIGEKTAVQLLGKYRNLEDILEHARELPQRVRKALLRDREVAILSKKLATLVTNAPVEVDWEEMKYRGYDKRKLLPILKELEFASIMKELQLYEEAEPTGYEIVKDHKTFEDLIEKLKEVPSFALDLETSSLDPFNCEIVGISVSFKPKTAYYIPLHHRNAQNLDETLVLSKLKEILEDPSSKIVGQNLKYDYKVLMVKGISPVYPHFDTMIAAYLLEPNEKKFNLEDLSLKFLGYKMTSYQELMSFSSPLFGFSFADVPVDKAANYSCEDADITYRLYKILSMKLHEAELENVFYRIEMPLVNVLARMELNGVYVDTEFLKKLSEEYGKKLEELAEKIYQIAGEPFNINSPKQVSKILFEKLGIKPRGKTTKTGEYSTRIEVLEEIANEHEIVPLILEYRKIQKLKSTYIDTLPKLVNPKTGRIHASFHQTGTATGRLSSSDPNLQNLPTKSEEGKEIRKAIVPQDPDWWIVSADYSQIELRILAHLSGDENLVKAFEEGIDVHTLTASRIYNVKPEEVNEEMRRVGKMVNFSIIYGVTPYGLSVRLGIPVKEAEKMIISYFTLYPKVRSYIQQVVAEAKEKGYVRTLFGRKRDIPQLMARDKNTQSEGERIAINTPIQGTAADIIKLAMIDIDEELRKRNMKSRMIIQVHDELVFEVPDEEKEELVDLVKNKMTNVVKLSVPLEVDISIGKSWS
Procedure: as §5, §3, §6

[5] = substrate: Cc1cn([C@H]2C[C@H](O)[C@@H](COP(=O)(O)OP(=O)(O)OP(=O)(O)O)O2)c(=O)[nH]c1=O; assay: purified protein, by the assay type; settings: 55 °C, mean ± SD
[6] = Table 34, DNA template, 2 mM MgCl2, 45 °C per footnote
[7] = read-out: Km DNA (dGTP), Table 34, DNA template, 2 mM MgCl2, 45 °C per footnote
[8] = other: Table 40, (dA)270•(dT)40, dTTP
[9] = other: Table 40, (rA)250•(dT)30, dTTP

| Molecule | Kcat DNA (dGTP) [1] | Km ([1]; read-out: Km DNA (dGTP)) | Kcat DNA (dGTP) [2] | Km ([2]; read-out: Km DNA (dGTP)) | Kcat DNA (dGTP) [3, 6] | kCAT DNA-DNA ([3]; Table 40, (dC)n•(dG)35, dGTP, 37 °C, mean ± SD) | Km [3, 7] | Kcat DNA (dGTP) [4, 6] | kCAT DNA-DNA ([4]; Table 40, (dC)n•(dG)35, dGTP, 72 °C, mean ± SD) | Km [4, 7] | kcat [5, 8] | kcat [5, 9] |
| --- | --- | --- | --- | --- | --- | --- | --- | --- | --- | --- | --- | --- |
| Nc1nc2c(ncn2[C@H]2C[C@H](O)[C@@H](COP(=O)(O)OP(=O)(O)OP(=O)(O)O)O2)c(=O)[nH]1 [dGTP] | 11.5 s⁻¹ | 0.5 µM | 57 s⁻¹ | 17.1 µM | 15.4 s⁻¹ | 16 ± 2 s⁻¹ | 2.4 µM | 17.5 s⁻¹ | 130 ± 32 s⁻¹ | 17.2 µM |  |  |
| B1 |  |  |  |  |  |  |  |  |  |  | 40 ± 13 s⁻¹ | 88 ± 5 s⁻¹ |
| B2 |  |  |  |  |  |  |  |  |  |  | 28 ± 1 s⁻¹ | 16 ± 1 s⁻¹ |

From patent publication US20160108381A1, “DNA POLYMERASES AND MUTANTS THEREOF” (LIFE TECHNOLOGIES CORPORATION, priority 2001, published 2016)
